8 molecules from patent US10556844B2, “Pyrazole compounds as nitrification inhibitors” (BASF SE, priority 2015, dated 2020) can be followed below.

Each structure is given as a SMILES string.

This assay concerns nitrification. The experiment in a line: Inhibition of nitrification in field soil (48 well plate, ammonium sulfate, colour reaction read at 540 nm). The note with it: for IN (best inhibition value obtained for a compound): soil, room temperature, up to 72 hrs. The procedure: The compounds of the invention have been tested as follows in terms of the inhibition of nitrification:
Soil was sampled fresh from a field (e.g. Limburgerhof), dried and sieved through a 500 μm sieve. Approximately 200 mg of soil were placed into each well of a 48 well plate. Compounds, or DMSO alone, were added at a concentration of 10 ppm, dissolved in 1% DMSO. 6 μmol ammonium sulfate was added per well as well as 4.8 mg NaClO3.
Subsequently, the samples were incubated at room temperature for up to 72 hrs. After the incubation period 64 mg KCl were added and mixed. 25 μl of the supernatant were placed into a fresh plate and 260 μl of a color reaction solution (from Merck Nr 1.11799.0100) were added.
Measurements were taken with a Tecan plate Reader at 540 nm wavelength.
Inhibition is calculated as x=% activity compared to control, and converted to 100-x to give the value of inhibition, rather than activity.

Turning to `C#CCn1nc(O)c2ccccc21` [Compound A-14], where the note is “dose of 10 ppm”, the “IN (best inhibition value obtained for a compound)” value is recorded as 59%.

Take `C#CCn1cccn1` [Compound A-19]: the “IN (best inhibition value obtained for a compound)” value (dose of 10 ppm) is 45%.

Consider `C#CCn1ncc2c1C(=O)c1ccccc1C2=O` [Compound A-33], for which, under “dose of 10 ppm”, the “IN (best inhibition value obtained for a compound)” value was 44%.

For `C#CCn1ncc(C(=O)O)c1C` [Compound A-42], the “IN (best inhibition value obtained for a compound)” value (dose of 10 ppm) was 17%.

For `C#CCn1nc(C)c(OC(C)=O)c1C` [Compound A-44], the “IN (best inhibition value obtained for a compound)” value (dose of 5±1 ppm) is 59%.

Regarding `C=C=Cn1ccc(C)n1` [Compound B-5], the “IN (best inhibition value obtained for a compound)” value (dose of 10 ppm) was over 10%.

On to `C=C=Cn1nccc1C` [Compound B-6], for which the “IN (best inhibition value obtained for a compound)” value (dose of 10 ppm) is over 10%.

Turning to `C#Cc1ccccc1` [Phenylacetylene, phenylacetylene, reference compound], the “IN (inhibition value)” value (reference compound, same conditions, dose of 10 ppm) was 7%.
